In PubChem BioAssay (NCI):
Values joined by “and” are separate entries in the source; they are usually repeats but may differ in a detail not shown here. Equal values may be shown once.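 Exposure lasted 48 hours, with cells grown in 96-well plates and compounds tested at five concentrations. GI50 marks 50% less growth. TGI marks complete inhibition of growth.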

What was measured:
Test in all cases: NCI anticancer screen, dose series, 48 h
U251 CNS = test system: U251 CNS
MDA-MB-435 = test system: MDA-MB-435
MOLT-4 leukemia = test system: MOLT-4 leukemia
HS 578T breast = test system: HS 578T breast
NCI-H522 lung = test system: NCI-H522 lung
LOX IMVI melanoma = test system: LOX IMVI melanoma
COLO 205 colon = test system: COLO 205 colon
OVCAR-3 ovarian = test system: OVCAR-3 ovarian
A549 NSCLC = test system: A549 NSCLC
OVCAR-5 ovarian = test system: OVCAR-5 ovarian

Row | Compound | TGI (U251 CNS) | TGI (MDA-MB-435) | TGI (MOLT-4 leukemia) | TGI (HS 578T breast) | TGI (NCI-H522 lung) | TGI (LOX IMVI melanoma) | TGI (COLO 205 colon) | TGI (OVCAR-3 ovarian) | TGI (A549 NSCLC) | TGI (OVCAR-5 ovarian) | GI50 (U251 CNS) | GI50 (MDA-MB-435) | GI50 (HS 578T breast) | GI50 (A549 NSCLC) | GI50 (NCI-H522 lung) | GI50 (LOX IMVI melanoma) | GI50 (COLO 205 colon) | GI50 (OVCAR-5 ovarian) | GI50 (OVCAR-3 ovarian) | GI50 (MOLT-4 leukemia)
1 | O=C(/C=C/c1ccc2c(c1)OCO2)c1ccccc(=O)c1O | > 100 µM | > 100 µM | > 100 µM | > 100 µM | 63.4 µM | > 100 µM | 20.2 µM | > 100 µM |  |  |  |  |  |  |  |  |  |  |  | 
2 | NC(CCCNCc1ccccc1O)C(=O)O (stereo unspecified) |  |  | > 100 µM |  | > 100 µM | > 100 µM | > 100 µM | > 100 µM | > 100 µM | > 100 µM |  |  |  |  |  |  |  |  |  | 
3 | CC1=NN(c2ccccc2)C(=O)C1C(=O)C(=O)Nc1ccc(C)cc1C (stereo unspecified) | > 100 µM |  | > 100 µM | > 100 µM | > 100 µM | > 100 µM | > 100 µM | > 100 µM | > 100 µM | > 100 µM |  |  |  |  |  |  |  |  |  | 
4 | COc1ccc(OC)c2c3c(ncc12)-c1cc2c(cc1C3)OCO2 | 3.31 µM | > 100 µM |  | 62.1 µM | > 100 µM | 1.85 µM | > 100 µM | > 100 µM | > 100 µM | > 100 µM | 0.209 µM | > 100 µM | 7.01 µM | > 100 µM | 52.3 µM | 0.104 µM | > 100 µM | > 100 µM | 26.9 µM | 
5 | O=c1nc2[nH]nc(-c3ccccc3)c2n[nH]1 | > 100 µM |  | > 100 µM |  | > 100 µM | > 100 µM | > 100 µM | > 100 µM | > 100 µM | > 100 µM |  |  |  |  |  |  |  |  |  | 
6 | O=C1CC23CC(=O)CC2(C1)c1ccccc1C3=O (stereo unspecified) | > 100 µM |  | > 100 µM |  | > 100 µM | > 100 µM | > 100 µM | > 100 µM | > 100 µM | > 100 µM |  |  |  |  |  |  |  |  |  | 
7 | COC(=O)CCC(=O)C(C#N)c1ccc(Cl)cc1Cl (stereo unspecified) | > 100 µM |  | > 100 µM |  | > 100 µM | > 100 µM |  | > 100 µM | > 100 µM |  |  |  |  |  |  |  |  |  |  | 
8 | CCCN1CN(C(C(=O)N[C@@H]2C(=O)N3C(C(=O)O)=C(C)CSC23)c2ccccc2)CSC1=S (stereo partly specified) | > 100 µM |  | > 100 µM |  | > 100 µM | > 100 µM | > 100 µM | > 100 µM | > 100 µM | > 100 µM |  |  |  |  |  |  |  |  |  | 
9 | O=c1[nH]c(C2CCCCC2)nc2cc(Cl)ccc12 | > 100 µM |  | > 100 µM |  | > 100 µM |  | > 100 µM | > 100 µM | > 100 µM | > 100 µM |  |  |  |  |  |  |  |  |  | 
10 | COC(=O)[C@]1(C)CCC[C@]2(C)C3CC4OOC3(C=C4C(C)C)CCC21 (stereo partly specified) | 37.1 µM |  | 49.8 µM |  | 3.41 µM | 11.5 µM | 39.4 µM | 76.6 µM | 33.9 µM | 41.5 µM |  |  |  |  |  |  |  |  |  | 
11 | C/C(CC(=O)Nc1ccc([N+](=O)[O-])cc1)=N/N=C(N)N | > 100 µM |  | > 100 µM |  | > 100 µM | > 100 µM | > 100 µM | > 100 µM | > 100 µM | > 100 µM |  |  |  |  |  |  |  |  |  | 
12 | Cn1c(-c2ccccc2)c/c(=N\NS(C)(=O)=O)c2cc(S(=O)(=O)O)ccc21 | > 100 µM |  | > 100 µM |  | > 100 µM | > 100 µM | > 100 µM | > 100 µM | > 100 µM | > 100 µM |  |  |  |  |  |  |  |  |  | 
13 | COc1cc2c(/C=C3/C(=O)Nc4c3ccc3ccccc43)c(Cl)[nH]c2cc1C | 9.94 µM | 0.0238 µM |  |  |  | 0.0304 µM |  | 0.0294 µM | 0.778 µM | > 50 µM | 0.0559 µM | 0.00618 µM | 0.289 µM | 0.0443 µM | 0.0123 µM | 0.00548 µM | 0.0715 µM | 10.2 µM | 0.00854 µM | 
14 | O=C(Nc1cccc(-n2cc(-c3ccncc3)c(-c3ccc(O)c(Cl)c3)n2)c1)Nc1ccc(Cl)c(C(F)(F)F)c1 | 8.02 µM | 4.88 µM | 4.65 µM | 6.24 µM | 4.16 µM | 3.21 µM | 3.32 µM |  | 5.86 µM | 13.9 µM | 1.7 µM | 1.98 µM | 1.3 µM | 1.83 µM | 1.64 µM | 1.61 µM | 1.77 µM | 3.02 µM |  | 1.64 µM
15 | [O-][N+]1=C(c2ccccc2)COc2ccccc21 | > 100 µM |  | > 100 µM |  | > 100 µM | > 100 µM | > 100 µM | > 100 µM | > 100 µM | > 100 µM |  |  |  |  |  |  |  |  |  | 
16 | O=C(CCc1cc(-c2ccco2)n(-c2ccc([N+](=O)[O-])cc2[N+](=O)[O-])n1)Nc1ccccc1 | > 100 µM |  | > 100 µM |  | > 100 µM |  | > 100 µM |  | > 100 µM | > 100 µM |  |  |  |  |  |  |  |  |  | 
17 | COC(=O)C12OCC34C(CC5C(C)=CC(=O)C(O)C5(C)C3C(O)C1O)OC(=O)C(OC(=O)CC(C)C)C24 (stereo unspecified) |  | 0.00697 µM |  | 0.000948 µM | 0.00118 µM |  |  |  |  |  | < 0.0342 µM |  |  | < 0.0399 µM and 0.05 µM |  | < 0.0336 µM and 0.05 µM | 0.425 µM and 0.05 µM | 0.0825 µM and 0.0586 µM | < 0.0518 µM | 
18 | COC(=O)C1CCc2nnc(-c3cccnc3)n21 (stereo unspecified) | > 100 µM |  | > 100 µM |  | > 100 µM |  | > 100 µM | > 100 µM | > 100 µM |  |  |  |  |  |  |  |  |  |  | 
19 | COC(=O)/C(Cl)=C1/CC1COCc1ccccc1 (stereo unspecified) |  |  | 53.5 µM |  | 40.5 µM | > 10 µM | 44.4 µM | 52.5 µM | > 100 µM | > 100 µM |  |  |  |  |  |  |  |  |  | 
20 | CC(C)(C)C1CCN(C(=O)c2ccccc2)CC1 | > 100 µM |  | > 100 µM |  | > 100 µM | > 100 µM | > 100 µM | > 100 µM | > 100 µM | > 100 µM |  |  |  |  |  |  |  |  |  | 
21 | COC1=CC(=O)C2[C@H]3Cc4ccccc4[C@H]3C2(C)C1=O (stereo partly specified) | > 100 µM |  | > 100 µM |  | > 100 µM | > 100 µM | > 100 µM | > 100 µM | > 100 µM | > 100 µM |  |  |  |  |  |  |  |  |  | 
22 | CN(C)CCOc1cccc(NC2=C(Cl)C(=O)C(Nc3cccc(OCCN(C)C)c3)=C(Cl)C2=O)c1 | 2.93 µM | 1.9 µM | 0.844 µM |  | 0.46 µM | 0.407 µM | 0.684 µM | 0.334 µM | 3.98 µM | 3.4 µM | 1.47 µM | 0.666 µM |  | 2.19 µM | 0.194 µM | 0.191 µM | 0.258 µM | 1.84 µM | 0.18 µM | 0.255 µM
